Measurements: ChEMBL document CHEMBL1137942, “Design, synthesis, and biological activity of novel, potent, and selective (benzoylaminomethyl)thiophene sulfonamide inhibitors of c-Jun-N-terminal kinase” (J Med Chem, 2004)

Legend:
[1] = biological target: Mitogen-activated protein kinase 14 (Homo sapiens) (UniProt Q16539); experiment: Percentage activity of human SAPK2a in the presence of 10 uM of compound and 10 uM of ATP in comparison with control
[2] = biological target: CDK6/cyclin D3 (Homo sapiens) (UniProt P30281+Q00534); experiment: Percentage activity of human CDK6 with cyclin D3) in the presence of 10uM of compound and 10uM of ATP in comparison with control; format: protein-complex assay
[3] = biological target: Serine/threonine-protein kinase Chk2 (Homo sapiens) (UniProt O96017); experiment: Percentage activity of human CHK2 in the presence of 10 uM of compound and 10 uM of ATP in comparison with control
Serine/threonine-protein kinase Chk2 (Homo sapiens), sequence (O96017 whole entry): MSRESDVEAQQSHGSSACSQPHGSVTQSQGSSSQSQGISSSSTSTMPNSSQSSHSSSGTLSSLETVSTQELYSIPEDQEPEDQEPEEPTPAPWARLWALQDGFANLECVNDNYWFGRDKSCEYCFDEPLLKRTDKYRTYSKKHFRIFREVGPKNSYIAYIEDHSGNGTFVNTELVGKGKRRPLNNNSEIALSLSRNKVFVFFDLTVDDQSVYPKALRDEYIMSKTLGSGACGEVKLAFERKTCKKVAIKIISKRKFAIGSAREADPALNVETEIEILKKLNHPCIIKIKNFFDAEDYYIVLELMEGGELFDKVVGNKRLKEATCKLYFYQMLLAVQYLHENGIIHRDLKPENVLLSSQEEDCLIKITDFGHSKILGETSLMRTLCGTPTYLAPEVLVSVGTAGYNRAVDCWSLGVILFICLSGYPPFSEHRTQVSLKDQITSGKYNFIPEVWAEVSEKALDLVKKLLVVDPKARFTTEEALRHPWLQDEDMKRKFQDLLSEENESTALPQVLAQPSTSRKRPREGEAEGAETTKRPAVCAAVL

[4] = biological target: 3-phosphoinositide-dependent protein kinase 1 (Homo sapiens) (UniProt O15530); experiment: Percentage activity of human PDK1 in the presence of 10 uM of compound and 10 uM of ATP in comparison with control
[5] = biological target: RAC-gamma serine/threonine-protein kinase (Homo sapiens) (UniProt Q9Y243); experiment: Percentage activity of human PKB gamma in the presence of 10uM of compound and 10uM of ATP in comparison with control
RAC-gamma serine/threonine-protein kinase (Homo sapiens), sequence (Q9Y243 whole entry): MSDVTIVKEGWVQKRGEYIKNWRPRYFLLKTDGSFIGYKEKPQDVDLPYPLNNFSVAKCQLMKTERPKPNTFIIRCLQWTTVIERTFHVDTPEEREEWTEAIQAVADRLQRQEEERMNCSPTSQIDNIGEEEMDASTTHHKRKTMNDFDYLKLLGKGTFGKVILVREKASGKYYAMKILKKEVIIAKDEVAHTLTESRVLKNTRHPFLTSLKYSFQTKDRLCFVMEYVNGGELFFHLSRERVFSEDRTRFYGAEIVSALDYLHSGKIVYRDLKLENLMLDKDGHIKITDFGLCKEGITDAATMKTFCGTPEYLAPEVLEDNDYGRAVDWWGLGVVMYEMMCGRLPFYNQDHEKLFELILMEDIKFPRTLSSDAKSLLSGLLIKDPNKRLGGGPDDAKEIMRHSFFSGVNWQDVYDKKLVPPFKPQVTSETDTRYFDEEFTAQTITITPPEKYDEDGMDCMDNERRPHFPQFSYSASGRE

[6] = biological target: Serine/threonine-protein kinase N2 (Homo sapiens) (UniProt Q16513); experiment: Percentage activity of human PRK2 in the presence of 10 uM of compound and 10 uM of ATP in comparison with control
[7] = biological target: Protein kinase C epsilon type (Homo sapiens) (UniProt Q02156); experiment: Percentage activity of human PKC epsilon in the presence of 10 uM of compound and 10 uM of ATP in comparison with control
[8] = biological target: Serine/threonine-protein kinase D1 (Homo sapiens) (UniProt Q15139); experiment: Percentage activity of human PKC mu in the presence of 10 uM of compound and 10 uM of ATP in comparison with control
Serine/threonine-protein kinase D1 (Homo sapiens), sequence (Q15139 whole entry): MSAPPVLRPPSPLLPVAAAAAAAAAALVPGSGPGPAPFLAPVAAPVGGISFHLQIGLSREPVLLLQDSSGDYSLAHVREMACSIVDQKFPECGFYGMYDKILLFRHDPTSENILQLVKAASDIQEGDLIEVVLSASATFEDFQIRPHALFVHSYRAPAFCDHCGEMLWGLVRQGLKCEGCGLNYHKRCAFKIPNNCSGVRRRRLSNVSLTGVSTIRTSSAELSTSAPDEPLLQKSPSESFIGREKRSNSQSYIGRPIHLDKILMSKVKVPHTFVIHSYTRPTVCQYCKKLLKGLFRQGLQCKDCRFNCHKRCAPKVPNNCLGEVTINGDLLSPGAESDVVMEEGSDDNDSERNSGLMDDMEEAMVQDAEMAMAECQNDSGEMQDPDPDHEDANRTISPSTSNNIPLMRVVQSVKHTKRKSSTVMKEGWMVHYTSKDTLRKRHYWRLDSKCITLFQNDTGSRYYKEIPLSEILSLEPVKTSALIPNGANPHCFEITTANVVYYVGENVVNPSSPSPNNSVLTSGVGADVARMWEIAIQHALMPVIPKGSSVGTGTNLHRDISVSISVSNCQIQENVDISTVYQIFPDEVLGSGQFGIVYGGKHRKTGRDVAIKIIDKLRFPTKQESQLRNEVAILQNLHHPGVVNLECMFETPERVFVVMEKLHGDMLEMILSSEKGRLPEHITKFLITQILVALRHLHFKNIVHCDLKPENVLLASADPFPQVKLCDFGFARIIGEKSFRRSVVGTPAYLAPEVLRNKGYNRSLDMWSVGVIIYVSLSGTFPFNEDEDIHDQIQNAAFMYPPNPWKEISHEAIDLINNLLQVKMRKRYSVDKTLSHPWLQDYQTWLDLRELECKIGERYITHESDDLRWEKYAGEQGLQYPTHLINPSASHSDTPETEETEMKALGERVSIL

[9] = biological target: RAF proto-oncogene serine/threonine-protein kinase (Homo sapiens) (UniProt P04049); experiment: Percentage activity of human c-RAF in the presence of 10 uM of compound and 10 uM of ATP in comparison with control
[10] = biological target: Tyrosine-protein kinase SYK (Homo sapiens) (UniProt P43405); experiment: Percentage activity of human Syk in the presence of 10 uM of compound and 10 uM of ATP in comparison with control
[11] = biological target: Mitogen-activated protein kinase 13 (Homo sapiens) (UniProt O15264); experiment: Percentage activity of human SAPK4 in the presence of 10 uM of compound and 10 uM of ATP in comparison with control
[12] = biological target: MAP kinase-activated protein kinase 2 (Homo sapiens) (UniProt P49137); experiment: Percentage activity of human MAPKAP-K2 in the presence of 10uM of compound and 10uM of ATP in comparison with control
[13] = biological target: MAP kinase-activated protein kinase 5 (Homo sapiens) (UniProt Q8IW41); experiment: Percentage activity of human PRAK in the presence of 10 uM of compound and 10 uM of ATP in comparison with control
[14] = biological target: Dual specificity mitogen-activated protein kinase kinase 1 (Homo sapiens) (UniProt Q02750); experiment: Percentage activity of human MEK1 in the presence of 10 uM of compound and 10 uM of ATP in comparison with control
[15] = biological target: RAC-alpha serine/threonine-protein kinase (Homo sapiens) (UniProt P31749); experiment: Percentage activity of human PKB alpha in the presence of 10 uM of compound and 10 uM of ATP in comparison with control
[16] = biological target: Protein kinase C beta type (Homo sapiens) (UniProt P05771); experiment: Percentage activity of human PKC betaII -His in the presence of 10 uM of compound and 10 uM of ATP in comparison with control
Protein kinase C beta type (Homo sapiens), sequence (P05771 2-671 limits assumed): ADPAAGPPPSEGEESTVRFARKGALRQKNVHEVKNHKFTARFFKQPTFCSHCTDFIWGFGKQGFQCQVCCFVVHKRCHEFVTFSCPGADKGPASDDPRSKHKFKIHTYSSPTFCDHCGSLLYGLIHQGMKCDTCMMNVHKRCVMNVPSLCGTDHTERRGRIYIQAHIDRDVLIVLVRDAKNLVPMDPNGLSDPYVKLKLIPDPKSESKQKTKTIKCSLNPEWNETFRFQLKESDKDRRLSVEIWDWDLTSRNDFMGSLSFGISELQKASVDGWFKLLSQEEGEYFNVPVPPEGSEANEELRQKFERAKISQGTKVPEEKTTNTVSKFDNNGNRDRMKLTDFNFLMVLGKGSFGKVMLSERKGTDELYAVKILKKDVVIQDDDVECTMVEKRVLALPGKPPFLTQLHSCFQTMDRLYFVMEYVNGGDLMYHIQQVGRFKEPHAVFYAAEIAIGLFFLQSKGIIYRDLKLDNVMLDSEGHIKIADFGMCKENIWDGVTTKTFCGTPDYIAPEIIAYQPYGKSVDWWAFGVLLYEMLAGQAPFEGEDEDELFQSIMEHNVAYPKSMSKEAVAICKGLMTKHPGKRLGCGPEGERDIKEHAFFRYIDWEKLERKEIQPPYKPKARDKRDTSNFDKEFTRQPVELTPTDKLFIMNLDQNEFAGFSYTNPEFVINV

[17] = biological target: Mitogen-activated protein kinase 1 (Homo sapiens) (UniProt P28482); experiment: Percentage activity of human MAPK1 in the presence of 10 uM of compound and 10 uM of ATP in comparison with control
[18] = biological target: Cyclin-dependent kinase 2/cyclin E (Homo sapiens) (UniProt P24864+P24941+O96020); experiment: Percentage activity of human CDK2 (with cyclin E) in the presence of 10 uM of compound and 10 uM of ATP in comparison with control; format: protein-complex assay
[19] = biological target: Tyrosine-protein kinase Blk (Mus musculus) (UniProt P16277); experiment: Percentage activity of mouse Blk in the presence of 10 uM of compound and 10 uM of ATP in comparison with control
[20] = biological target: Tyrosine-protein kinase Lyn (Homo sapiens) (UniProt P07948); experiment: Percentage activity of human Lyn in the presence of 10 uM of compound and 10 uM of ATP in comparison with control
[21] = species: Homo sapiens; experiment: Percentage activity of human Rsk2 in the presence of 10 uM of compound and 10 uM of ATP in comparison with control
[22] = biological target: Mitogen-activated protein kinase 8 (Homo sapiens) (UniProt P45983); experiment: Percentage activity of human JNK1a1 in the presence of 10 uM of compound and 10 uM of ATP in comparison with control
Mitogen-activated protein kinase 8 (Homo sapiens), sequence (P45983 whole entry): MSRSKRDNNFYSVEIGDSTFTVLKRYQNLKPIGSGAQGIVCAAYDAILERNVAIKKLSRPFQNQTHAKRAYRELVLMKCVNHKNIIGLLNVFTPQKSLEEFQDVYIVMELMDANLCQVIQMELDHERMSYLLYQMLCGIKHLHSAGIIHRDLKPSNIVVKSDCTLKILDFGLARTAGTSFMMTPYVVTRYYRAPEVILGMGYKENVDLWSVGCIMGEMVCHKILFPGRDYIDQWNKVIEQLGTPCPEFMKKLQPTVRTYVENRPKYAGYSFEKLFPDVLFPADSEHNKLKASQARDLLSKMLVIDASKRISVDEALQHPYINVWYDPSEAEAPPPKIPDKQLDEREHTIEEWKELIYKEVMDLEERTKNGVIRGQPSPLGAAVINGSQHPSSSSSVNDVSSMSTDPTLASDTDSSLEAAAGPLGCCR

[23] = biological target: Serine/threonine-protein kinase Sgk1 (Homo sapiens) (UniProt O00141); experiment: Percentage activity of human SGK in the presence of 10 uM of compound and 10 uM of ATP in comparison with control
[24] = biological target: Cyclin-dependent kinase 5/CDK5 activator 1 (Homo sapiens) (UniProt Q00535+Q15078); experiment: Percentage activity of human CDK5 (with […]) in the presence of 10 uM of compound and 10 uM of ATP in comparison with control; format: protein-complex assay
Cyclin-dependent kinase 5/CDK5 activator 1 (Homo sapiens), sequence (Q00535 whole entry): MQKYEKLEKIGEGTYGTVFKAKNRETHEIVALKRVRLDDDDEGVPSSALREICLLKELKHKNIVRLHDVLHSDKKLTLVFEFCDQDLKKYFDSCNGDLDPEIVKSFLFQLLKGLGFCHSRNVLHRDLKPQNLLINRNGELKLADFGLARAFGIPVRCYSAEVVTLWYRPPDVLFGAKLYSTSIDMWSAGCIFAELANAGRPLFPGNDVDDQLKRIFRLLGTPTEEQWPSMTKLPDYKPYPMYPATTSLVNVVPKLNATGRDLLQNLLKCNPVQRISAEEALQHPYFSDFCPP
Cyclin-dependent kinase 5/CDK5 activator 1 (Homo sapiens), sequence (Q15078 99-307 partner limits assumed): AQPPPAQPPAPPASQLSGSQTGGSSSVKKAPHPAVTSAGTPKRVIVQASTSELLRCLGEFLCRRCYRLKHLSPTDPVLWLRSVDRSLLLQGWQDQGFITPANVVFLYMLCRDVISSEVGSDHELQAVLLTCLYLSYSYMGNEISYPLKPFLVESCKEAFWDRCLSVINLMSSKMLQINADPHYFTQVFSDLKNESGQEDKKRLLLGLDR

[25] = biological target: Cytoplasmic tyrosine-protein kinase BMX (Homo sapiens) (UniProt P51813); experiment: Percentage activity of human Bmx in the presence of 10uM of compound and 10uM of ATP in comparison with control
Cytoplasmic tyrosine-protein kinase BMX (Homo sapiens), sequence (P51813 whole entry): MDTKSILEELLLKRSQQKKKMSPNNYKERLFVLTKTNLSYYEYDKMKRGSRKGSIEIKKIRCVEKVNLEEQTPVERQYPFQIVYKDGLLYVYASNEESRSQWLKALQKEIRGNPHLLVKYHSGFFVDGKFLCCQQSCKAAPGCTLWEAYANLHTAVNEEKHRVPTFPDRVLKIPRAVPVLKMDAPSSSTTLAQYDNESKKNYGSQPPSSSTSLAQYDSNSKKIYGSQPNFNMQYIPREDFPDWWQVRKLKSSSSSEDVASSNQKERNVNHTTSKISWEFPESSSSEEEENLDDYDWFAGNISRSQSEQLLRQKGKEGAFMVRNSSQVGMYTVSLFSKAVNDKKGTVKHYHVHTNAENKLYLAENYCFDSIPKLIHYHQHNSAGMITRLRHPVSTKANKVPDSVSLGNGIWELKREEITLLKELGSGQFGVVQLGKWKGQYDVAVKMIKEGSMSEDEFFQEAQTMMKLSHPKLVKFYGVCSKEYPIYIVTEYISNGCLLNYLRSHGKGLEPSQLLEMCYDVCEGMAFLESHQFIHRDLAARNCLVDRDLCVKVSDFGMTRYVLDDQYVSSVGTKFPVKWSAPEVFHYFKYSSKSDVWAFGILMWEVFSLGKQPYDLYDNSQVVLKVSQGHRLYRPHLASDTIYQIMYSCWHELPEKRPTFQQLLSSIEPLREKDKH

[26] = biological target: Dual specificity mitogen-activated protein kinase kinase 7 (Homo sapiens) (UniProt O14733); experiment: Percentage activity of human MKK7 beta in the presence of 10 uM of compound and 10 uM of ATP in comparison with control
[27] = test system: SCG; experiment: Cell activity of JNK inhibitors in neuronal apoptosis assay in SCG cells, percentage rescued neurons at 10 uM compound concentration after 24 hours; format: functional, Rattus norvegicus
[28] = biological target: Insulin receptor (Homo sapiens) (UniProt P06213); experiment: Percentage activity of human IR in the presence of 10 uM of compound and 10 uM of ATP in comparison with control
[29] = biological target: Insulin-like growth factor 1 receptor (Homo sapiens) (UniProt P08069); experiment: Percentage activity of human IGF-1R in the presence of 10 uM of compound and 10 uM of ATP in comparison with control
[30] = biological target: Tyrosine-protein kinase Lck (Homo sapiens) (UniProt P06239); experiment: Percentage activity of human Lck in the presence of 10 uM of compound and 10 uM of ATP in comparison with control
Tyrosine-protein kinase Lck (Homo sapiens), sequence (P06239 2-509 limits assumed): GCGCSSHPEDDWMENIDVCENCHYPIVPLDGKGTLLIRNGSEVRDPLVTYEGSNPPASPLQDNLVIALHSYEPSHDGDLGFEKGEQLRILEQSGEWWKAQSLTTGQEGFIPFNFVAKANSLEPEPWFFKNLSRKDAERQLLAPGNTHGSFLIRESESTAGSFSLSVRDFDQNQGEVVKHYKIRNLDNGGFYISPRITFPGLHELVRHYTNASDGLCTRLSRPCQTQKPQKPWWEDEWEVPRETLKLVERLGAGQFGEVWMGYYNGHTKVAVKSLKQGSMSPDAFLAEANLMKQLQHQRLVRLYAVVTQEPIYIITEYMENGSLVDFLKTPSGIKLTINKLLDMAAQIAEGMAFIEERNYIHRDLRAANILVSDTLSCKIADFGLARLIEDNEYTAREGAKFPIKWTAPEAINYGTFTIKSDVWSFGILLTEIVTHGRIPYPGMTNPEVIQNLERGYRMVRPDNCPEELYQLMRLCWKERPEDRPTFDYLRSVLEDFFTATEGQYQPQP

[31] = biological target: BDNF/NT-3 growth factors receptor TrkB (Homo sapiens) (UniProt Q16620); experiment: Percentage activity of human TrkB in the presence of 10 uM of compound and 10 uM of ATP in comparison with control

Activity [1]: 77%
Activity [2]: 102%
Activity [3]: 75%
Activity [4]: 98%
Activity [5]: 76%
Activity [6]: 92%
Activity [7]: 95%
Activity [8]: 93%
Activity [9]: 93%
Activity [10]: 75%
Activity [11]: 101%
Activity [12]: 74%
Activity [13]: 74%
Activity [14]: 98%
Activity [15]: 51%
Activity [16]: 88%
Activity [17]: 97%
Activity [18]: 94%
Activity [19]: 78%
Activity [20]: 89%
Activity [21]: 77%
Activity [22]: 20%
Activity [23]: 67%
Activity [24]: 103%
Activity [25]: 88%
Activity [26]: 121%
Activity [28]: 103%
Activity [29]: 108%
Activity [30]: 85%
Activity [31]: 83%
SMILES: O=C(NCc1ccc(S(=O)(=O)N2CCC(n3nnc4ccccc43)CC2)s1)c1ccc(Cl)cc1
Rescued neurons [27]: 27.3%
